Data from patent US20090163476A1, “N-Phenyl Benzamide Derivatives as Sirtuin Modulators” (Sirtris Pharmaceuticals, Inc., priority 2005, published 2009).

Key:
Format in all cases: biochemical
SIRT1 [1] = target: T1, SIRT1 (Homo sapiens, UniProt Q96EB6); assay: Fluorescence polarization assay of SIRT1 activity (p53-based peptide substrate); conditions: activation of SIRT1; peptide 1 for Compounds 1-18, peptide 2 for Compounds 19-164; read-out: ED50 FP
T1 sequence (Q96EB6 1-747): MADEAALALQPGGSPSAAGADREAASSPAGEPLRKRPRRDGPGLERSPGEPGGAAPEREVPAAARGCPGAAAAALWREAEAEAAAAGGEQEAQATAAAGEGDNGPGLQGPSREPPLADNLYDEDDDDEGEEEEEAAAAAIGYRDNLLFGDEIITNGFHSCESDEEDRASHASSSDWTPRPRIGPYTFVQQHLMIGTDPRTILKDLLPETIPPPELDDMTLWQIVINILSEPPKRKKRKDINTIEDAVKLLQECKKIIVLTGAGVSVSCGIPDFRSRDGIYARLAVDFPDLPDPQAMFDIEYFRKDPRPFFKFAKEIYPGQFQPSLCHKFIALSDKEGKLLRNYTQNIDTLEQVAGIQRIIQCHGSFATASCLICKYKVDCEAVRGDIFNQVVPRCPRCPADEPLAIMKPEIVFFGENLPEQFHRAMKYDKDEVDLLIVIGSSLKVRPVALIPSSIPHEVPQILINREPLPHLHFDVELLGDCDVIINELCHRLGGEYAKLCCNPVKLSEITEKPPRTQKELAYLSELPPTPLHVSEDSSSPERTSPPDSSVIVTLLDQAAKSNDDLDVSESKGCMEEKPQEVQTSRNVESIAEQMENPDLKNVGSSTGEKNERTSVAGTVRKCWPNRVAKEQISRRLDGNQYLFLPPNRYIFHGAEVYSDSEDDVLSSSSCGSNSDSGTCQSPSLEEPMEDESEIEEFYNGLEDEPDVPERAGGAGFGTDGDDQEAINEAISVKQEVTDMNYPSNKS
Procedure: A fluorescence polarization or mass spectrometry based assay was used to identify modulators of SIRT1 activity. The same assay may be used to identify modulators of any sirtuin protein. The fluorescence polarization assays utilizes one of two different peptides based on a fragment of p53, a known sirtuin deacetylation target. Compounds 1-18 were tested using a substrate containing peptide 1 having 20 amino acid residues as follows: Ac-EE-K(biotin)-[…](Ac)NleSTEG-K(M121)-EE-NH2 (SEQ ID NO: 1) wherein K(biotin) is a biotinolated lysine residue, K(Ac) is an acetylated lysine residue, Nle is norleucine and K(MR121) is a lysine residue modified by an MR121 fluorophore. This peptide is labeled with the fluorophore MR121 (excitation 635 nm/emission 680 nm) at the C-termini and biotin at the N-termini. The sequence of the peptide substrates are based on p53 with several modifications. In particular, all arginine and […] residues other than the acetylated lysine residues have replaced with serine so that the peptides are not susceptible to trypsin cleavage in the absence of deacetylation. In addition, the methionine residues naturally present in the sequences have been replaced with the norleucine because the methionine may be susceptible to oxidation during synthesis and purification. […] The peptide is labeled with the fluorophore 5TMR (excitation 540 nm/emission 580 nm) at the C-terminus. The sequence of the peptide substrate is also based on p53 with several modifications. In addition, the methionine residue naturally present in the sequence was replaced with the norleucine because the methionine may be susceptible to oxidation during synthesis and purification.
The peptide substrates were exposed to a sirtuin protein in the presence of NAD^+ to allow deacetylation of the substrate and render it sensitive to cleavage by trypsin. Trypsin was then added and the reaction was carried to completion (i.e., the deacetylated substrate is cleaved) releasing the MR121 or 5TMR fragment. Streptavidin is then added to the reaction where it can bind both the uncleaved substrate (i.e., any remaining acetylated substrate) and the non-fluorescent portion of the cleaved peptide substrate (i.e., the biotin containing fragment). The fluorescence polarization signal observed for the full length peptide substrates bound to streptavidin was higher than the fluorescence polarization signal observed for the released MR121 or 5TMR C-terminal fragment. In this way, the fluorescence polarization obtained is inversely proportional to the level of deacetylation (e.g., the signal is inversely proportional to the activity of the sirtuin protein). Results were read on a microplate fluorescence polarization reader (Molecular Devices Spectramax MD) with appropriate excitation and emission filters.
The fluorescence polarization assays using peptide 1 is conducted as follows: 0.5 μM peptide substrate and 150 μM βNAD^+ is incubated with 0.1 μg/mL of SIRT1 for 60 minutes at 37° C. in a reaction buffer (25 mM Tris-acetate pH8, 137 mM Na—Ac, 2.7 mM K—Ac, 1 mM Mg—Ac, 0.05% Tween-20, 0.1% Pluronic F127, 10 mM CaCl2, 5 mM DTT, 0.025% BSA, 0.15 mM Nicotinamide). Test compounds 1-18 were solubilized in DMSO and added to the reaction at 11 concentrations ranging from 0.7 μM to 100 μM.
Fluorescence polarization assays using peptide 2 is conducted as follows: 0.5 μM peptide substrate and 120 μM βNAD^+ were incubated with 3 nM SIRT1 for 20 minutes at 25° C. in a reaction buffer (25 mM Tris-acetate pH8, 137 mM Na—Ac, 2.7 mM K—Ac, 1 mM Mg—Ac, 0.05% Tween-20, 0.1% Pluronic F127, 10 mM CaCl2, 5 mM DTT, 0.025% BSA). Test compounds 19-56 were solubilized in DMSO and added to the reaction at 10 concentrations ranging from 300 μM to 0.15 μM in three-fold dilutions.
After the incubation with SIRT1, nicotinamide was added to the reaction to a final concentration of 3 mM to stop the deacetylation reaction and 0.5 μg/mL of trypsin was added to cleave the deacetylated substrate. […]

SIRT1 [2] = target: T1, SIRT1; assay: SIRT1 fluorescence polarization or mass spectrometry based assay (format not given); conditions: inhibition of SIRT1 (Table 5)
SIRT1 [3] = target: T1, SIRT1; assay: Mass spectrometry based assay of SIRT1 activity; set-up: key to FOLD ACTIVATION MS: A: Fold activation >250%; B: Fold Activation <250%; C: no fold activation; conditions: for EC50: activation of SIRT1, read-out: ED50 MS
Procedure: The mass spectrometry based assay utilizes a peptide having 20 amino acid residues as follows: […] The sequence of the peptide substrate is based on p53 with several modifications. […] Test compounds may be added to the reaction as described above. […] After the 25 minute incubation with SIRT1, 10 μL of 10% formic acid is added to stop the reaction. Reactions are sealed and frozen for later mass spec analysis. Determination of the mass of the substrate peptide allows for precise determination of the degree of acetylation (i.e. starting material) as compared to deacetylated peptide (product). […] This timepoint is the same as that used for test compounds and, within the linear range, the endpoint represents a change in velocity. For each of the above assays, SIRT1 protein was expressed and purified as follows. The SirT1 gene was cloned into a T7-promoter containing vector and transformed into BL21(DE3). The protein was expressed by induction with 1 mM IPTG as an N-terminal His-tag fusion protein at 18° C. overnight and harvested at 30,000×g. […] The protein was purified over a Ni-NTA column (Amersham) and fractions containing pure protein were pooled, concentrated and run over a sizing column (Sephadex S200 26/60 global). The peak containing soluble protein was collected and run on an Ion-exchange column (MonoQ). […] This protein was concentrated and dialyzed against dialysis buffer (20 mM Tris-HCl, 2 mM TCEP) overnight. The protein was aliquoted and frozen at −80° C. until further use.

Row | Compound | EC50 (SIRT1 [1]) [µM] | IC50 (SIRT1 [2]) [µM] | FOLD ACTIVATION MS (SIRT1 [3]) | EC50 (SIRT1 [3]) [µM]
1 | CC(=O)Oc1cc(C(=O)Nc2ccccc2C(=O)O)cc(C(=O)Nc2ccccc2C(=O)O)c1 [Compound 1] | < 50 |  |  | 
2 | O=C(Nc1cc(NC(=O)c2ccccc2)c(C(=O)O)cc1C(=O)O)c1ccccc1 [Compound 2] | > 150 |  |  | 
3 | O=C(Nc1ccccc1C(=O)O)c1cccc(C(=O)Nc2ccccc2C(=O)O)c1 [Compound 3] | 51 to 100 |  |  | 
4 | COc1cc(NC(=O)c2cccc(Br)c2)c(C(=O)O)cc1OC [Compound 5] | 51 to 100 |  |  | 
5 | COc1ccccc1C(=O)Nc1cccc(NC(=O)c2ccco2)c1 [Compound 6] | > 150 |  |  | 
6 | COc1ccccc1C(=O)Nc1cccc(-c2nc3ncccc3o2)c1 [Compound 7] | < 50 |  |  | 
7 | CCOc1cccc(C(=O)Nc2cc(OC)c(OC)cc2C(=O)O)c1 [Compound 8] | 51 to 100 |  |  | 
8 | CC1COCC(C)N1c1ccc(C(=O)NCc2cccc(CN)c2)cc1NC(=O)c1ccc2ccccc2c1 (stereo not shown) [Compound 9] | 101 to 150 |  |  | 
9 | COc1cc(C(=O)Nc2cc(Cl)ccc2C(=O)O)ccc1OC(C)=O [Compound 10] | > 150 |  |  | 
10 | O=C(O)c1ccc(NC(=O)c2cccc(NC(=O)c3cccs3)c2)cc1 [Compound 13] |  | < 50 |  | 
11 | CC(=O)Oc1ccc(C(=O)Nc2ccc(C(=O)O)cc2NC(=O)c2ccc(OC(C)=O)cc2)cc1 [Compound 14] |  | 51 to 100 |  | 
12 | O=C(Nc1cccc(-c2nc3ncccc3o2)c1)c1ccc(N2CCOCC2)cc1 [Compound 38] | > 150 |  | C | > 150
13 | O=C(Nc1cccc(-c2nc3ncccc3o2)c1)c1ccc(N2CCCCC2)cc1 [Compound 39] | > 150 |  | C | > 150
14 | COc1ccc(C(=O)Nc2cccc(-c3nc4ncccc4o3)c2)c(C(F)(F)F)c1 [Compound 40] | > 150 |  | C | > 150
15 | COc1ccc(C(=O)Nc2cccc(-c3nc4ncccc4o3)c2)cc1C(F)(F)F [Compound 41] | > 150 |  | C | > 150
16 | CN(C)c1cccc(C(=O)Nc2cccc(-c3nc4ncccc4o3)c2)c1 [Compound 42] | < 50 |  | B (Fold Activation <250%) | < 50
17 | CN(C)c1ccc(C(=O)Nc2cccc(-c3nc4ncccc4o3)c2)cc1 [Compound 43] | < 50 |  | B (Fold Activation <250%) | < 50
18 | N#Cc1cccc(C(=O)Nc2cccc(-c3nc4ncccc4o3)c2)c1 [Compound 44] |  | > 150 |  | 
19 | N#Cc1ccc(C(=O)Nc2cccc(-c3nc4ncccc4o3)c2)cc1 [Compound 45] | > 150 |  | C | > 150
20 | COc1cccc(OC)c1C(=O)Nc1cccc(-c2nc3ncccc3o2)c1 [Compound 46] | > 150 |  | C | > 150
21 | O=C(Nc1cccc(-c2nc3ncccc3o2)c1)c1ccc(N2CCCC2)cc1 [Compound 47] |  | 51 to 100 |  | 
22 | COc1cc(OC)c(C(=O)Nc2cccc(-c3nc4ncccc4o3)c2)c(OC)c1 [Compound 48] | > 150 |  | C | > 150
23 | COc1cccc(C(=O)Nc2cccc(-c3nc4ncccc4o3)c2)c1C [Compound 49] | > 150 |  | B (Fold Activation <250%) | < 50
24 | COc1cc(C)ccc1C(=O)Nc1cccc(-c2nc3ncccc3o2)c1 [Compound 51] | < 50 |  | B (Fold Activation <250%) | < 50
25 | COc1ccc(C(=O)Nc2cccc(-c3nc4ncccc4o3)c2)cc1OC [Compound 52] | < 50 |  | B (Fold Activation <250%) | < 50
26 | COc1ccc(C(=O)Nc2cccc(-c3nc4ncccc4o3)c2)c(OC)c1OC [Compound 53] | > 150 |  | C | > 150
27 | COc1ccc(C(=O)Nc2cccc(-c3nc4ncccc4o3)c2)c(OC)c1 [Compound 55] | < 50 |  | B (Fold Activation <250%) | < 50
28 | O=C(Nc1cccc(-c2nc3ncccc3o2)c1)c1ccccc1 [Compound 56] | > 150 |  | B (Fold Activation <250%) | < 50
